Laboratory results as given in patent US10435402B2, “Bicyclic compounds, compositions and medicinal applications thereof” (Advinus Therapeutics Limited, priority 2015, dated 2019).

Molecular target: T1, GAL4-DBD/RORγ-LBD (Homo sapiens, UniProt P51449)
T1 construct: expressed in transfected cells; host or cells: HEK293T
Assay: RORγt transactivation reporter assay (GAL4-DBD/RORγ-LBD, luciferase read out)
Type: cell-based
Details: HEK293T cells, GAL4-UAS luciferase reporter, overnight (18-24 hours) incubation
Protocol: RORγt Transactivation Reporter Assay Protocol: The inhibition of RORγt activity in cells was evaluated using a GAL4-UAS reporter system in HEK293T cells employing a luciferase read out. RORγt ligand binding domain (LBD) was cloned into the pFN26A (BIND) vector (Promega #[…]) containing yeast GAL4-DBD to form a RORγt LBD-GAL4 DBD fusion construct. This vector also contained a Renilla Luciferase reporter expressed under a SV40 promoter which was used as a control for transfection efficiency. A transcriptional reporter expression construct pGL4.35 (Promega #[…]) was used to monitor RORγt LBD-GAL4 activity. This construct contained nine repeats of GAL4 binding site/upstream activating sequence (UAS) controlling expression of a firefly luciferase reporter Luc2P. When transfected together in cells, the RORγ-LBD-DBD fusion protein drives expression of the luciferase reporter. For the assay, HEK293T cells were plated in a flat bottom 96 well plate at a density of 25,000 cells/well/100 ul of DMEM high glucose medium (Sigma D5648) containing 10% FBS and antibiotic. Cells were incubated overnight at 37 C/5% CO2. The next day, medium from the wells was removed and replaced with 30 ul of OptiMEM® (Invitrogen #31985070). 100 ng each of pBIND RORγ LBD-DBD and pGL4.35 reporter plasmids was transfected in HEK293T cells using Lipofectamine 2000 (Invitrogen #11668-019) where 10 ul of transfection complex was added to the each well. Control transfections were performed with an empty pF[…] vector and pGL4.35 vector. The transfected cells were incubated for 5 hours at 37 C/5% CO2. After incubation, 40 ul of DMEM high glucose medium without FBS, with antibiotic was added to each well. A 10 mM stock solution of test compound prepared in 100% DMSO was first diluted in DMSO and then in DMEM medium without FBS to give the required final compound concentration. Concentration of DMSO in the test compound solution was 0.4%. 20 ul of diluted compound solution was added to each well. Cells were incubated overnight (18-24 hours) at 37 C/5% CO2. The next day, luciferase assay was performed using the Dual Glo® Luciferase Assay System (Promega #E2940). Briefly, medium was removed from the wells and replaced with 40 ul 1× Passive Lysis Buffer (Promega #E1941). Plate was incubated at room temperature on a plate shaker at 1000 rpm for 40 min. After incubation, plate was centrifuged at 1000 rpm for 2 min. 20 ul of the lysate was transferred from each well to that of solid white half area 96 well plate (Costar #3693). Dual Glo® Reagent was thawed to room temperature and 20 ul was added to each well containing lysate. Plate was centrifuged at 1000 rpm/2 min and incubated at room temperature on a plate shaker at 600 rpm/25 min. Firefly luciferase signal was measured on a Tecan Safire2. After measurement, 20 ul of Dual Glo® Stop Glo® Reagent was added to each well. Plate was centrifuged at 1000 rpm/2 min and incubated at room temperature on a plate shaker at 600 rpm/25 min. Renilla luciferase signal was measured on Tecan Safire 2. IC50 values for test compounds were calculated from the normalized luciferase signal data using GraphPad Prism software.

T1 sequence (P51449 269-508 limits assumed): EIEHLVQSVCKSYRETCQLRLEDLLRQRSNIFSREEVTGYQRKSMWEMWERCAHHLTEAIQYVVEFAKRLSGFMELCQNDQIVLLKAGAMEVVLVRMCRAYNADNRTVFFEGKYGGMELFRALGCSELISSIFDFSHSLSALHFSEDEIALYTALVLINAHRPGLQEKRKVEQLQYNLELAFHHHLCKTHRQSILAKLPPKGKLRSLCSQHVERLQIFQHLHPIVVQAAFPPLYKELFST
T1 sequence (P04386 1-147 partner limits assumed): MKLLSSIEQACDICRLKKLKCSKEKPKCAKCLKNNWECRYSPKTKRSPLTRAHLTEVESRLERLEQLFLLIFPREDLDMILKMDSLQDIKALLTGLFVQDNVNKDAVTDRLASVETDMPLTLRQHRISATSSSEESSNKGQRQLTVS

Row | IC50 [nM] | Molecule
1 | > 5000 | (2,6-dichlorophenyl)-[1-(4-methylsulfonylphenyl)indolizin-3-yl]methanone [Example A-20]
2 | < 500 | O=C(O)c1ccc(-c2cc(C(=O)c3c(Cl)ccc(F)c3Cl)n3cccc(F)c23)c(F)c1 [Example A-49, 4-[3-(2,6-dichloro-3-fluoro-benzoyl)-8-fluoro-indolizin-1-yl]-3-fluoro-benzoic acid]
3 | < 500 | O=C(O)c1ccc(-c2cc(C(=O)c3c(Cl)cccc3C3CC3)n3ccccc23)c(F)c1 [Example A-29, 4-[3-(2-chloro-6-cyclopropyl-benzoyl)indolizin-1-yl]-3-fluoro-benzoic acid]
4 | < 500 | O=C(O)c1ccc(-c2cc(C(=O)c3c(Cl)ccc(F)c3Cl)n3ccccc23)cc1 [Example A-19, 4-[3-(2,6-dichloro-3-fluoro-benzoyl)indolizin-1-yl]benzoic acid]
5 | < 500 | O=C(O)c1ccc(-c2cc(C(=O)c3c(Cl)cccc3Cl)n3cc(C(=O)N4CCC4)ccc23)cc1 [Example D-6, 4-[6-(azetidine-1-carbonyl)-3-(2,6-dichlorobenzoyl)indolizin-1-yl]benzoic acid]
6 | < 500 | CCOC(=O)c1ccc(-c2cc(C(=O)c3c(Cl)cccc3C3CC3)n3ccccc23)cc1 [Example A-31, ethyl 4-[3-(2-chloro-6-cyclopropyl-benzoyl)indolizin-1-yl]benzoate]
7 | < 500 | CCOC(=O)c1ccc(-c2cc(C(=O)c3c(F)cccc3F)n3ccccc23)cc1 [Example A-36, ethyl 4-[3-(2,6-difluorobenzoyl)indolizin-1-yl]benzoate]
8 | < 500 | CCOC(=O)c1ccc(-c2cc(C(=O)c3c(C)cccc3Cl)n3ccccc23)cc1 [Example A-14, ethyl 4-[3-(2-chloro-6-methyl-benzoyl)indolizin-1-yl]benzoate]
9 | < 500 | O=C(O)c1ccc(-c2cc(C(=O)c3c(Cl)cccc3Cl)n3cc(F)ccc23)cc1 [Example A-26, 4-[3-(2,6-dichlorobenzoyl)-6-fluoro-indolizin-1-yl]benzoic acid]
10 | < 500 | CCOC(=O)c1ccc(-c2cc(C(=O)c3c(F)ccc(F)c3F)n3ccccc23)c(F)c1 [Example A-41, ethyl 3-fluoro-4-[3-(2,3,6-trifluorobenzoyl)indolizin-1-yl]benzoate]
11 | > 5000 | COCCNC(=O)c1ccc2c(-c3ccc(C(=O)O)cc3)cc(C(=O)c3c(Cl)cccc3Cl)n2c1 [Example D-8, 4-[3-(2,6-dichlorobenzoyl)-6-(2-methoxyethylcarbamoyl)indolizin-1-yl]benzoic acid]
12 | < 500 | CCOC(=O)c1ccc(-c2c(C)c(C(=O)c3c(Cl)cccc3Cl)n3ccccc23)cc1 [Example C-3, ethyl 4-[3-(2,6-dichlorobenzoyl)-2-methyl-indolizin-1-yl]benzoate]
13 | < 500 | O=C(O)c1ccc(-c2cc(Cc3c(F)cccc3Cl)n3ccccc23)cc1 [Example J-1, 4-[3-[(2-chloro-6-fluoro-phenyl)methyl]indolizin-1-yl]benzoic acid]
14 | > 5000 | 4-[3-(2,6-dichloro-3-fluoro-benzoyl)indolizin-1-yl]-N,N-dimethyl-benzamide [Example F-2]
15 | < 500 | CCOC(=O)c1ccc(-c2cc(C(=O)c3c(Cl)cccc3Cl)n3cc(C(F)(F)F)ccc23)cc1 [Example A-64, ethyl 4-[3-(2,6-dichlorobenzoyl)-6-(trifluoromethyl)indolizin-1-yl]benzoate]
16 | > 5000 | O=C(O)c1ccc(-c2cc(C(=O)c3c(Cl)cccc3Cl)n3ccccc23)cn1 [Example A-10, 5-[3-(2,6-dichlorobenzoyl)indolizin-1-yl]pyridine-2-carboxylic acid]
17 | < 5000 | O=C(O)c1ccc(-c2cc(C(=O)c3c(Cl)cccc3Br)n3ccccc23)cc1 [Example A-50, 4-[3-(2-bromo-6-chloro-benzoyl)indolizin-1-yl]benzoic acid]
18 | < 500 | O=C(O)c1ccc(-c2cc(C(=O)c3c(Cl)cccc3C(F)(F)F)n3cc(C(=O)N4CCC4)ccc23)cc1 [Example D-11, 4-[6-(azetidine-1-carbonyl)-3-[2-chloro-6-(trifluoromethyl)benzoyl]indolizin-1-yl]benzoic acid]
19 | < 5000 | O=C(O)c1ccc(-c2cc(C(=O)c3c(Cl)cccc3Cl)n3cc(C(F)(F)F)ccc23)cc1 [Example A-63, 4-[3-(2,6-dichlorobenzoyl)-6-(trifluoromethyl)indolizin-1-yl]benzoic acid]
20 | < 500 | O=C(O)c1ccc(-c2c(F)c(C(=O)c3c(Cl)cccc3Cl)n3ccccc23)c(F)c1 [Example B-4, 4-[3-(2,6-dichlorobenzoyl)-2-fluoro-indolizin-1-yl]-3-fluoro-benzoic acid]
21 | > 5000 | CNC(=O)c1ccc(-c2nc(C(=O)c3c(Cl)ccc(F)c3Cl)n3ccccc23)cc1 [Example F-1, 4-[3-(2,6-dichloro-3-fluoro-benzoyl)imidazo[1,5-a]pyridin-1-yl]-N-methyl-benzamide]
22 | > 5000 | O=C(O)c1ccc(-c2cc(C(=O)c3c(Cl)cccc3C(F)(F)F)n3c2CCCC3)c(F)c1 [Example H-4, 4-[3-[2-chloro-6-(trifluoromethyl)benzoyl]-5,6,7,8-tetrahydroindolizin-1-yl]-3-fluoro-benzoic acid]
23 | < 500 | CCOC(=O)c1ccc(-c2cc(C(=O)c3c(F)cccc3F)n3cccc(F)c23)c(F)c1 [Example A-46, ethyl 4-[3-(2,6-difluorobenzoyl)-8-fluoro-indolizin-1-yl]-3-fluoro-benzoate]
24 | > 5000 | O=C(O)c1cccc(-c2cc(C(=O)c3c(Cl)cccc3C(F)(F)F)n3ccccc23)c1 [Example A-57, 3-[3-[2-chloro-6-(trifluoromethyl)benzoyl]indolizin-1-yl]benzoic acid]
25 | < 500 | O=C(O)c1ccc(-c2cc(C(=O)c3c(Cl)cccc3Cl)n3cc(C(=O)N4CCCC4)ccc23)cc1 [Example D-5, 4-[3-(2,6-dichlorobenzoyl)-6-(pyrrolidine-1-carbonyl)indolizin-1-yl]benzoic acid]
26 | < 500 | Cc1c(-c2ccc(C(=O)O)cc2F)c2n(c1C(=O)c1c(Cl)cccc1Cl)CCCC2 [Example H-2, 4-[3-(2,6-dichlorobenzoyl)-2-methyl-5,6,7,8-tetrahydroindolizin-1-yl]-3-fluoro-benzoic acid]
27 | < 500 | O=C(O)c1ccc(-c2cc(C(=O)c3c(Cl)ccc(F)c3Cl)n3cccc(F)c23)cc1 [Example A-43, 4-[3-(2,6-dichloro-3-fluoro-benzoyl)-8-fluoro-indolizin-1-yl]benzoic acid]
28 | < 500 | CCOC(=O)c1ccc(-c2c(F)c(C(=O)c3c(Cl)ccc(F)c3Cl)n3ccccc23)cc1 [Example B-5, ethyl 4-[3-(2,6-dichloro-3-fluoro-benzoyl)-2-fluoro-indolizin-1-yl]benzoate]
29 | < 500 | Cc1c(-c2ccc(C(=O)O)cc2F)c2ccccn2c1C(=O)c1c(Cl)cccc1Cl [Example C-2, 4-[3-(2,6-dichlorobenzoyl)-2-methyl-indolizin-1-yl]-3-fluoro-benzoic acid]

Row | Molecule | IC50 [nM]
30 | 4-[3-[2-chloro-6-(trifluoromethyl)benzoyl]-6-(pyrrolidine-1-carbonyl)indolizin-1-yl]benzoic acid [Example D-12] | < 500
31 | 4-[3-(2-chloro-6-fluoro-benzoyl)indolizin-1-yl]benzoic acid [Example A-28] | < 500
32 | 4-[3-(2,6-dichlorobenzoyl)-6-(4H-1,2,4-triazol-3-yl)indolizin-1-yl]benzoic acid [Example D-10] | < 500
